{"source": "patent US12678435B2", "about": "“Prevention and/or treatment of contrast-induced acute kidney injury” (Saghmos Therapeutics Inc., priority 2016, dated 2026)", "origin": "cited, not measured here", "system": "patients with high serum creatinine levels undergoing coronary angiography/angioplasty", "details": "four Phase 2 clinical trials; compared with isotonic saline; published in Onbasili 2007, Rahman 2012, Shehata 2014, Liu 2015", "data": [{"smiles": "COc1ccc(CN2CCNCC2)c(OC)c1OC", "note": "[Trimetazidine]", "values": [{"measurement": "reducing the risk of contrast-induced nephropathy (CIN)", "value": "more effective than isotonic saline in reducing the risk of contrast-induced nephropathy (CIN)"}]}]}
